Experimental data from patent publication US20230146455A1, “TREATMENT OF INFLAMMATORY DISEASES WITH PEPTIDES AND PHARMACEUTICAL COMPOSITIONS” (Yuyu Pharma, Inc., priority 2020, published 2023).
Where “and” joins values, the source holds several entries; their conditions need not be identical. Identical values can stand only once. Where a SMILES comes first, the peptide text is derived from it. [ ]: non-standard residue; d: D form. Hyp = O=C(O)[C@@H]1C[C@@H](O)CN1

Tested on: Fas Ligand
Assay: Example 9 Luminex, LPS hPBMCs: Fas Ligand
Format: cell-based, human
Conditions: for Fas Ligand Concentration / Fas Ligand conc/live cell / MFI, bead Fas Ligand: single replicates
Protocol: Treatment Human PBMCs were pretreated with YY-101, YDE-011 and YDE-043 or reference compound; Xiidra® at various concentration (ranging from 1 nM to 100 uM) for 2 h before stimulation. An equal volume of 0.5% DMSO was used as a vehicle control. Then, the cells were treated with LPS at 5 ug/ml. The supernatants from treated cells were harvested at 24 h and placed in a 96 well for Luminex cytokine & chemokine profiling using a Luminex 200 multiplex assay (Luminex; R&D system, USA).
The main study arm with triplicate wells per group in a 24-well plate: • 1. Blank • 2. PBMC: 0.5% DMSO • 3. PBMC+LPS (5 ug/ml) • 4. PBMC+YY-101 100 uM • 5. PBMC+YY-101 10 uM • 6. PBMC+YY-101 1 uM • 7. PBMC+YY-101 0.1 uM • 8. PBMC+YY-101 0.01 uM • 9. PBMC+LPS (5 ug/ml)+Xiidra®100 uM • 10. PBMC+LPS (5 ug/ml)+Xiidra® 10 uM • 11. PBMC+LPS (5 ug/ml)+Xiidra® 1 uM • 12. PBMC+LPS (5 ug/ml)+Xiidra®0.1 uM • 13. PBMC+LPS (5 ug/ml)+Xiidra®0.01 uM • 14. PBMC+LPS (5 ug/ml)+Xiidra®0.001 uM • 15. PBMC+LPS (5 ug/ml)+YY-101 100 uM • 16. PBMC+LPS (5 ug/ml)+YY-101 10 uM • 17. PBMC+LPS (5 ug/ml)+YY-101 1 uM • 18. PBMC+LPS (5 ug/ml)+YY-101 0.1 uM • 19. PBMC+LPS (5 ug/ml)+YY-101 0.01 uM • 20. PBMC+LPS (5 ug/ml)+YY-101 0.001 uM • 21. PBMC+LPS (5 ug/ml)+YDE-011 100 uM • 22. PBMC+LPS (5 ug/ml)+YDE-011 10 uM • 23. PBMC+LPS (5 ug/ml)+YDE-011 1 uM • 24. PBMC+LPS (5 ug/ml)+YDE-011 0.1 uM • 25. PBMC+LPS (5 ug/ml)+YDE-011 0.01 uM • 26. PBMC+LPS (5 ug/ml)+YDE-011 0.001 uM • 27. PBMC+LPS (5 ug/ml)+YDE-043 100 uM • 28. PBMC+LPS (5 ug/ml)+YDE-043 10 uM • 29. PBMC+LPS (5 ug/ml)+YDE-043 1 uM • 30. PBMC+LPS (5 ug/ml)+YDE-043 0.1 uM • 31. PBMC+LPS (5 ug/ml)+YDE-043 0.01 uM • 32. PBMC+LPS (5 ug/ml)+YDE-043 0.001 uM
Multiplex assay was used to measure 30 cytokines and chemokines. The 1:2, 1:10 and 1:200 diluted cell supernatant and serial dilution of the standard were dispensed into a 96 well plate at 50 ul/well. Then, the pre-mixed cocktail of antibody-coated magnetic beads was dispensed at 50 ul/well and incubated at room temperature for 2 h in a horizontal orbital microplate shaker at 800±500 rpm. The beads were washed using a magnetic device to prevent loss. The biotin-antibody was dispensed in 50 ul of each well and incubated at room temperature for 1 h in a shaker at 800±500 rpm. After washing, streptavidin-PE was added at 50 ul/well and incubated at room temperature for 30 min in a shaker under the same conditions. Finally, after washing, wash buffer (100 ul/well) was added to the plate and incubated in a shaker for 2 min. The Luminex™ 200 setting were set according to the manufacturer's protocol. The data was calculated with a standard five-parameter logistic nonlinear regression analysis of the data (xPonent software 4.2, USA). The levels of cytokine/chemokine are normalized to the live cell counts (1×10^5 cells/mL) and presented as concentrations per mL (pg/mL or ng/mL).

[1] = PBMC + LPS(5 ug/ml) + test article 0.001 uM
[2] = PBMC + LPS(5 ug/ml) + test article 0.01 uM
[3] = PBMC + LPS(5 ug/ml) + test article 0.1 uM
[4] = PBMC + LPS(5 ug/ml) + test article 1 uM
[5] = PBMC + LPS(5 ug/ml) + test article 10 uM
[6] = PBMC + LPS(5 ug/ml) + test article 100 uM
[7] = PBMC + test article 0.01 uM, no LPS
[8] = PBMC + test article 0.1 uM, no LPS
[9] = PBMC + test article 1 uM, no LPS
[10] = PBMC + test article 10 uM, no LPS
[11] = PBMC + test article 100 uM, no LPS

Compound: CC(C)C[C@H](NC(=O)CNC(=O)[C@H](CC(=O)O)NC(=O)[C@H](CCC(N)=O)NC(=O)CNC(=O)[C@@H]1C[C@@H](O)CN1)C(=O)N[C@@H](C)C(=O)NCC(=O)N1CCC[C@H]1C(=O)N[C@@H](CCCCN)C(=O)O [YY-101] (H-[Hyp]GQDGLAGPK-OH; N-terminus and C-terminus assumed)
- Fas Ligand Concentration, Mean [1]: 30.9 pg/mL
- Fas Ligand conc/live cell, Mean [1]: 4.9 pg/10^5
- MFI, bead Fas Ligand, Mean [1]: 43.3
- Fas Ligand Concentration [1]: 35.8 pg/mL and 32.7 pg/mL and 24.1 pg/mL
- Fas Ligand conc/live cell [1]: 6.3 pg/10^5 and 4.6 pg/10^5 and 3.7 pg/10^5
- MFI, bead Fas Ligand [1]: 50.5 and 46.0 and 33.5
- Fas Ligand Concentration, Mean [2]: 33.8 pg/mL
- Fas Ligand conc/live cell, Mean [2]: 5.5 pg/10^5
- MFI, bead Fas Ligand, Mean [2]: 47.5
- Fas Ligand Concentration [2]: 30.7 pg/mL and 39.3 pg/mL and 31.3 pg/mL
- Fas Ligand conc/live cell [2]: 4.8 pg/10^5 and 6.6 pg/10^5 and 5.1 pg/10^5
- MFI, bead Fas Ligand [2]: 43.0 and 55.5 and 44.0
- Fas Ligand Concentration, Mean [3]: 29.5 pg/mL
- Fas Ligand conc/live cell, Mean [3]: 5.1 pg/10^5
- MFI, bead Fas Ligand, Mean [3]: 41.3
- Fas Ligand Concentration [3]: 32.7 pg/mL and 30.7 pg/mL and 25.2 pg/mL
- Fas Ligand conc/live cell [3]: 5.3 pg/10^5 and 5.9 pg/10^5 and 4.1 pg/10^5
- MFI, bead Fas Ligand [3]: 46.0 and 43.0 and 35.0
- Fas Ligand Concentration, Mean [4]: 34.5 pg/mL
- Fas Ligand conc/live cell, Mean [4]: 5.3 pg/10^5
- MFI, bead Fas Ligand, Mean [4]: 48.5
- Fas Ligand Concentration [4]: 35.5 pg/mL and 36.2 pg/mL and 31.7 pg/mL
- Fas Ligand conc/live cell [4]: 5.6 pg/10^5 and 5.1 pg/10^5 (2×)
- MFI, bead Fas Ligand [4]: 50.0 and 51.0 and 44.5
- Fas Ligand Concentration, Mean [5]: 46.7 pg/mL
- Fas Ligand conc/live cell, Mean [5]: 7.3 pg/10^5
- MFI, bead Fas Ligand, Mean [5]: 66.0
- Fas Ligand Concentration [5]: 58.0 pg/mL and 53.7 pg/mL and 28.6 pg/mL
- Fas Ligand conc/live cell [5]: 9.7 pg/10^5 and 8.4 pg/10^5 and 3.8 pg/10^5
- MFI, bead Fas Ligand [5]: 82.0 and 76.0 and 40.0
- Fas Ligand Concentration, Mean [6]: 25.4 pg/mL
- Fas Ligand conc/live cell, Mean [6]: 4.3 pg/10^5
- MFI, bead Fas Ligand, Mean [6]: 35.2
- Fas Ligand Concentration [6]: 39.0 pg/mL and 16.0 pg/mL and 21.1 pg/mL
- Fas Ligand conc/live cell [6]: 6.2 pg/10^5 and 2.6 pg/10^5 and 4.2 pg/10^5
- MFI, bead Fas Ligand [6]: 55.0 and 21.5 and 29.0
- Fas Ligand Concentration, Mean [7]: 7.7 pg/mL
- Fas Ligand conc/live cell, Mean [7]: 1.5 pg/10^5
- MFI, bead Fas Ligand, Mean [7]: 8.8
- Fas Ligand Concentration [7]: 6.5 pg/mL and 8.8 pg/mL
- Fas Ligand conc/live cell [7]: 1.3 pg/10^5 and 1.8 pg/10^5
- MFI, bead Fas Ligand [7]: 7.0 and 10.5
- Fas Ligand Concentration, Mean [8]: 7.2 pg/mL
- Fas Ligand conc/live cell, Mean [8]: 1.4 pg/10^5
- MFI, bead Fas Ligand, Mean [8]: 8.0
- Fas Ligand Concentration [8]: 6.5 pg/mL and 7.8 pg/mL
- Fas Ligand conc/live cell [8]: 1.5 pg/10^5 and 1.3 pg/10^5
- MFI, bead Fas Ligand [8]: 7.0 and 9.0
- Fas Ligand Concentration, Mean [9]: 7.5 pg/mL
- Fas Ligand conc/live cell, Mean [9]: 1.4 pg/10^5
- MFI, bead Fas Ligand, Mean [9]: 8.5
- Fas Ligand Concentration [9]: 6.5 pg/mL and 8.5 pg/mL
- Fas Ligand conc/live cell [9]: 1.2 pg/10^5 and 1.5 pg/10^5
- MFI, bead Fas Ligand [9]: 7.0 and 10.0
- Fas Ligand Concentration, Mean [10]: 13.2 pg/mL
- Fas Ligand conc/live cell, Mean [10]: 2.1 pg/10^5
- MFI, bead Fas Ligand, Mean [10]: 17.3
- Fas Ligand Concentration [10]: 14.0 pg/mL and 12.4 pg/mL
- Fas Ligand conc/live cell [10]: 2.2 pg/10^5 and 2.0 pg/10^5
- MFI, bead Fas Ligand [10]: 18.5 and 16.0
- Fas Ligand Concentration, Mean [11]: 6.9 pg/mL
- Fas Ligand conc/live cell, Mean [11]: 1.0 pg/10^5
- MFI, bead Fas Ligand, Mean [11]: 7.5
- Fas Ligand Concentration [11]: 7.8 pg/mL and 5.9 pg/mL
- Fas Ligand conc/live cell [11]: 1.2 pg/10^5 and 0.8 pg/10^5
- MFI, bead Fas Ligand [11]: 9.0 and 6.0
